Tests used:
[1] = potency of Amphotericin after foam drying and storage; type: physicochemical
Description: (7) Freeze-dried samples of Amphotericine B were rehydrated with 5 ml 40wt % sucrose per vial. Then the solutions were transferred into 50 ml sterilized glass vials for future preservation by drying. Before drying, the vials were covered with gray butyl slotted rubber stoppers. The vials were dried inside a vacuum chamber. The vials were sitting on the surface of a stainless steel shelf inside the chamber. The shelf temperature was controlled by circulating ethylene glycol/water antifreeze at a controlled temperature inside the shelf. Before the vacuum was applied the shelf temperature was decreased to 5° C. The hydrostatic pressure inside the chamber was decreased to 0.5 Torr. Under such a conditions the suspension boiled 30 min. The temperature of the shelf was then slowly (during 30 min) increased to 25° C. Visually, stable dry foams inside the vials under these experimental conditions were formed after 3 hours. After an additional 12 hours of drying at room temperature, the chamber was filled with the dry N2 gas and the rubber stoppers in a portion of the vials were pushed down. The vials were removed from the chamber and subsequently sealed with aluminum crimped seal. The samples were assayed right after drying and after 30 day of storage at 27.50 and 40° C. The results are shown in Table 1, together with the results obtained in the next experiment.
Another set of freeze-dried samples of Amphotericin B were rehydrated with 5 ml 40wt % sucrose per vial. The solutions were then transferred into sterilized glass vials for future preservation by drying similar to that described above with additional drying at 45° C. for additional 24 hours. After that, the chamber was filled again with the dry N2 gas, the rubber stoppers were pushed down and the vials were sealed. The samples were assayed right after drying and after 30 day of storage at 27.50 and 40° C.

[2] = Urokinase activity after foam drying and storage; type: physicochemical; conditions: 40wt % sucrose foam
Description: (6) Freezer-dried samples of Urokinase were rehydrated with 2 ml of 40wt % sucrose. The solutions were then transferred to 20 ml sterilized glass vials for future preservation by drying. Before drying, the vials were covered with gray slotted rubber stoppers. The vials were dried inside a vacuum chamber. The vials were sitting on the surface of a stainless steel shelf inside the chamber. The shelf temperature was controlled by circulating ethylene glycol/water antifreeze at a controlled temperature inside the shelf. Before the vacuum was applied the shelf temperature was decreased to 5° C. Then the hydrostatic pressure inside the chamber was decreased to 0.5 Torr. Under such a conditions the suspension boiled 30 min. […] Visually, stable dry foams inside the vials under these experimental conditions were formed during 3 hours. After an additional 12 hours of drying at room temperature, the temperature was increased to 45° C. for an additional 24 hours. After that the chamber was filled with the dry N2 gas, the rubber stoppers were pushed down and the vials were sealed with aluminum crimped seal.
The samples were assayed right after drying and after 30 days of storage at 40° C. After drying the Urokinase, activity was 93% of the initial activity. This decrease was associated with the loss of Urokinase during transformation from initial vials to the vials at which the Urokinase was dried. […]

Row | Compound | Potency of Amphotericin (%) ([1]; Freeze-dried control) | Potency of Amphotericin (%) After 30 days of storage at 27.5° C. ([1]; Td = 25° C.) [%] | Potency of Amphotericin (%) After drying ([1]; Td = 25° C. (maximum temperature during drying)) [%] | Potency of Amphotericin (%) After 30 days of storage at 27.5° C. ([1]; Td = 45° C.) [%] | Potency of Amphotericin (%) After 30 days of storage at 40° C. ([1]; Td = 45° C.) [%] | Potency of Amphotericin (%) After drying ([1]; Td = 45° C.) [%] | Urokinase activity, % of the initial activity ([2]; after 30 days of storage at 40° C.) [%] | Urokinase activity, % of the initial activity ([2]; right after drying (max 45° C.)) [%]
1 | C[C@@H]1[C@H](O)[C@@H](C)/C=C/C=C/C=C/C=C/C=C/C=C/C=C/[C@H](O[C@@H]2O[C@H](C)[C@@H](O)[C@H](N)[C@@H]2O)C[C@@H]2O[C@](O)(C[C@@H](O)C[C@@H](O)[C@H](O)CC[C@@H](O)C[C@@H](O)CC(=O)O[C@H]1C)C[C@H](O)[C@H]2C(=O)O [Amphotericin, Amphotericin B] | 126 | 114 | 108 | 102 | 104 | 103 |  | 
2 | Urokinase |  |  |  |  |  |  | 90 | 93
